Data from PMC5708646, “Single-molecule study of full-length NaChBac by planar lipid bilayer recording” (PLoS ONE, 2017).

Molecular target: T1, NaChBac (Halalkalibacterium halodurans, UniProt Q9KCR8)
T1 construct: gene BH1501
T1 sequence (Q9KCR8 1-274): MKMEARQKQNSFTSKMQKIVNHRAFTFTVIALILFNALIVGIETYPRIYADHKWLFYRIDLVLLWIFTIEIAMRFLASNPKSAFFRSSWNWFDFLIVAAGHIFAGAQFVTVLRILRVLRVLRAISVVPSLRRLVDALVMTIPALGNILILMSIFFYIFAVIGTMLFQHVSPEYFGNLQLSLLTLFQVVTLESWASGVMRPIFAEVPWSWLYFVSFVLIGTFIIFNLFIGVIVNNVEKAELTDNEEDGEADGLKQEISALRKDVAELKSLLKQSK
Assay: planar lipid bilayer current recording, reconstituted purified channel
Format: biochemical
Settings: block from the intracellular side, reversible on washout; concentration not printed for this test; step from -120 to +60 mV; POPE/POPG bilayer; pH 7.4

Compound: CC[N+](CC)(CC)CC(=O)Nc1c(C)cccc1C [lidocaine N-ethyl bromide]
- planar lipid bilayer current recording, reconstituted purified channel: It was observed that the current completely dimished (red trace of Fig 3C)
